Like-named read-outs stand apart in the source and are kept apart here.
Experiments:
[1] = target: PLK1 (Homo sapiens, UniProt P53350); assay: PLK1 protein kinase assay (CDC25C phosphorylation, [γ-32P]-ATP); type: biochemical; conditions: read-out: PLK1 IC50
[2] = target: T1, AA (Homo sapiens, UniProt O14965); assay: AA IC50 (Table 1; no method given); type: biochemical
T1 sequence (O14965 1-403): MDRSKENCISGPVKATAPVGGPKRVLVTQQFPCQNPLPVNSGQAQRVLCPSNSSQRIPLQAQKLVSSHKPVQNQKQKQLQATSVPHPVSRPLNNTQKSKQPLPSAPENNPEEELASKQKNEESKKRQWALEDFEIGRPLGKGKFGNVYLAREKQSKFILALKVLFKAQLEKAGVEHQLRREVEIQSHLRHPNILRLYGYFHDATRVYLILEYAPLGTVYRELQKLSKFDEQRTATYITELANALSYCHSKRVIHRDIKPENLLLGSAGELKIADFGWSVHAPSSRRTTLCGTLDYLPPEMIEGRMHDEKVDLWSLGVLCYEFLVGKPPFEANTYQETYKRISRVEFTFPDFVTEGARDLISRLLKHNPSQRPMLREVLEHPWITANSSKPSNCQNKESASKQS

[3] = Table 2, PLK1 IC50, class symbols
[4] = Table 2, AurA IC50, class symbols, read-out: AurA IC50

PLK1, sequence (P53350 whole entry): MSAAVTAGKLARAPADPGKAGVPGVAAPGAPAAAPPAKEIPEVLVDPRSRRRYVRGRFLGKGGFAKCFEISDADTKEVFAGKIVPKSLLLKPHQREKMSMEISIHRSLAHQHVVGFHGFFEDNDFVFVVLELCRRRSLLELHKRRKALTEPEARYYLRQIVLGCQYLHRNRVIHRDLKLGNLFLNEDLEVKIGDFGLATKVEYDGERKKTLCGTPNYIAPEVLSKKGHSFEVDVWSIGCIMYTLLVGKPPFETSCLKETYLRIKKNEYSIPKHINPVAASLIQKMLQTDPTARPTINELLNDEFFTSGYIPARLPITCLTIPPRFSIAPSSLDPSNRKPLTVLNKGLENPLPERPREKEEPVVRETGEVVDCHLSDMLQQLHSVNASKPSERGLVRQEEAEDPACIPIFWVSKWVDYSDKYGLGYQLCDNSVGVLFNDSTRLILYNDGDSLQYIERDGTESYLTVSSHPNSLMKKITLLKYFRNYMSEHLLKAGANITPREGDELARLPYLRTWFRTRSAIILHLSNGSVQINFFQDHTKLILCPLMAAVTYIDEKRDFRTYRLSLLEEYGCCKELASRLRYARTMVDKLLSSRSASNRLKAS

Row | Structure (SMILES) | IC50 ([1]; Table 1) | IC50 ([2]; Table 1, read-out: AA IC50) | IC50 [1, 3] | IC50 [2, 4]
1 | COc1cc(C(=O)O)ccc1Nc1ncc2c(n1)N(C1CCCC1)CCC(=O)N2C [compound 1, 4-(9-Cyclopentyl-5-methyl-6-oxo-6,7,8,9-tetrahydro-5H-pyrimido[4,5-b][1,4]diazepin-2-ylamino)-3-methoxy-benzoic acid] | < 1 µM | 1 to 10 µM |  | 
2 | CC1CC(=O)Nc2cnc(Nc3ccc(C(=O)O)cc3)nc2N1C1CCCC1 (centres unmarked) [compound 7] | < 1 µM | 1 to 10 µM |  | 
3 | CC1CC(=O)N(C)c2cnc(Nc3ccc(C(=O)O)cc3)nc2N1C1CCCC1 (centres unmarked) [compound 8, 4-(9-Cyclopentyl-5,8-dimethyl-6-oxo-6,7,8,9-tetrahydro-5H-pyrimido[4,5-b][1,4]diazepin-2-ylamino)-benzoic acid] | < 1 µM | < 0.1 µM |  | 
4 | CN1C(=O)CCN(c2ccccc2)c2nc(Nc3ccc(C(=O)O)cc3)ncc21 [compound 15, 4-(5-Methyl-6-oxo-9-phenyl-6,7,8,9-tetrahydro-5H-pyrimido[4,5-b][1,4]diazepin-2-ylamino)-benzoic acid] | < 10 µM | 0.1 to 1 µM |  | 
5 | CC1CN(C2CCCC2)c2nc(Nc3ccc(C(=O)NC4CCN(C)CC4)cc3)ncc2NC1=O (centres unmarked) [compound 18, 4-(9-Cyclopentyl-7-methyl-6-oxo-6,7,8,9-tetrahydro-5H-pyrimido[4,5-b][1,4]diazepin-2-ylamino)-N-(1-methyl-piperidin-4-yl)-benzamide] | < 10 µM | 1 to 10 µM |  | 
6 | CC1CC(=O)N(C)c2cnc(Nc3ccc(C(=O)NC4CCN(C)CC4)cc3)nc2N1C1CCCC1 (centres unmarked) [compound 37, 4-(9-Cyclopentyl-5,8-dimethyl-6-oxo-6,7,8,9-tetrahydro-5H-pyrimido[4,5-b][1,4]diazepin-2-ylamino)-N-(1-methyl-piperidin-4-yl)-benzamide] | < 1 µM | 0.1 to 1 µM |  | 
7 | CCC1CN(C2CCCC2)c2nc(Nc3ccc(C(=O)O)cc3)ncc2N(C)C1=O (centres unmarked) [compound 41, 4-(9-Cyclopentyl-7-ethyl-5-methyl-6-oxo-6,7,8,9-tetrahydro-5H-pyrimido[4,5-b][1,4]diazepin-2-ylamino)-benzoic acid] |  |  | < 1 µM | < 0.1 µM
8 | COc1cc(C(=O)NC2CCN(C)CC2)ccc1Nc1ncc2c(n1)N(C(C)(C)C)CCC(=O)N2C [compound 42, 4-(9-tert-Butyl-5-methyl-6-oxo-6,7,8,9-tetrahydro-5H-pyrimido[4,5-b][1,4]diazepin-2-ylamino)-3-methoxy-N-(1-methyl-piperidin-4-yl)-benzamide] |  |  | < 10 µM | < 1 µM
9 | CN1C(=O)CCN(C2CCCC2)c2nc(Nc3ccc4c(c3)CS(=O)(=O)C4)ncc21 [compound 46, 9-Cyclopentyl-2-(2,2-dioxo-2,3-dihydro-1H-2lambda*6*-benzo[c]thiophen-5-ylamino)-5-methyl-5,7,8,9-tetrahydro-pyrimido[4,5-b][1,4]diazepin-6-one] |  |  | < 10 µM | < 0.1 µM
10 | CN1C(=O)CCN(C2CCCC2)c2nc(Nc3ccc(S(=O)(=O)N4CCOCC4)cc3)ncc21 [compound 47, 9-Cyclopentyl-5-methyl-2-[4-(morpholine-4-sulfonyl)-phenylamino]-5,7,8,9-tetrahydro-pyrimido[4,5-b][1,4]diazepin-6-one] |  |  | < 10 µM | < 0.1 µM
11 | COc1cccc(N2CCC(=O)N(C)c3cnc(Nc4ccc(C(=O)O)cc4)nc32)c1 [compound 49, 4-[9-(3-Methoxy-phenyl)-5-methyl-6-oxo-6,7,8,9-tetrahydro-5H-pyrimido[4,5-b][1,4]diazepin-2-ylamino]-benzoic acid] |  |  | < 10 µM | < 10 µM
12 | CN1C(=O)CCN(c2ccccc2F)c2nc(Nc3ccc(C(=O)O)cc3)ncc21 [compound 50, 4-[9-(2-Fluoro-phenyl)-5-methyl-6-oxo-6,7,8,9-tetrahydro-5H-pyrimido[4,5-b][1,4]diazepin-2-ylamino]-benzoic acid] |  |  | < 10 µM | < 0.1 µM
13 | CN1C(=O)CCN(C2CCCC2)c2nc(Nc3ccc(N4CCOCC4)cc3)ncc21 [compound 51, 9-Cyclopentyl-5-methyl-2-(4-morpholin-4-yl-phenylamino)-5,7,8,9-tetrahydro-pyrimido[4,5-b][1,4]diazepin-6-one] |  |  | < 1 µM | < 1 µM
14 | CN1C(=O)CCN(C2CCCC2)c2nc(Nc3cccc(S(N)(=O)=O)c3)ncc21 [compound 53, 3-(9-Cyclopentyl-5-methyl-6-oxo-6,7,8,9-tetrahydro-5H-pyrimido[4,5-b][1,4]diazepin-2-ylamino)-benzenesulfonamide] |  |  | < 1 µM | < 1 µM
15 | CN1C(=O)CCN(C2CCCC2)c2nc(Nc3ccc(C(=O)O)cc3)ncc21 [compound 54, 4-(9-Cyclopentyl-5-methyl-6-oxo-6,7,8,9-tetrahydro-5H-pyrimido[4,5-b][1,4]diazepin-2-ylamino)-benzoic acid] |  |  | < 0.1 µM | < 0.1 µM
16 | CN1C(=O)CCN(C2CCCC2)c2nc(Nc3ccc(S(C)(=O)=O)cc3)ncc21 [compound 55, 9-Cyclopentyl-2-(4-methanesulfonyl-phenylamino)-5-methyl-5,7,8,9-tetrahydro-pyrimido[4,5-b][1,4]diazepin-6-one] |  |  | < 10 µM | < 0.1 µM
17 | CN1C(=O)CCN(C2CCCC2)c2nc(Nc3cccc(C(=O)O)c3)ncc21 [compound 56, 3-(9-Cyclopentyl-5-methyl-6-oxo-6,7,8,9-tetrahydro-5H-pyrimido[4,5-b][1,4]diazepin-2-ylamino)-benzoic acid] |  |  | < 1 µM | < 1 µM
18 | CN1CCC(NC(=O)c2cccc(Nc3ncc4c(n3)N(C3CCCC3)CCC(=O)N4C)c2)CC1 [compound 57, 3-(9-Cyclopentyl-5-methyl-6-oxo-6,7,8,9-tetrahydro-5H-pyrimido[4,5-b][1,4]diazepin-2-ylamino)-N-(1-methyl-piperidin-4-yl)-benzamide] |  |  | < 10 µM | < 1 µM
19 | COc1cc(Nc2ncc3c(n2)N(C2CCCC2)CCC(=O)N3C)ccc1C(=O)NC1CCN(C)CC1 [compound 58, 4-(9-Cyclopentyl-5-methyl-6-oxo-6,7,8,9-tetrahydro-5H-pyrimido[4,5-b][1,4]diazepin-2-ylamino)-2-methoxy-N-(1-methyl-piperidin-4-yl)-benzamide] |  |  | < 1 µM | < 0.1 µM
20 | CN1CCC(NS(=O)(=O)c2ccc(Nc3ncc4c(n3)N(C3CCCC3)CCC(=O)N4C)cc2)CC1 [compound 61, 4-(9-Cyclopentyl-5-methyl-6-oxo-6,7,8,9-tetrahydro-5H-pyrimido[4,5-b][1,4]diazepin-2-ylamino)-N-(1-methyl-piperidin-4-yl)-benzenesulfonamide] |  |  | < 10 µM | < 1 µM
21 | CN1C(=O)CCN(C2CCCC2)c2nc(Nc3ccc(S(N)(=O)=O)cc3)ncc21 [compound 63, 4-(9-Cyclopentyl-5-methyl-6-oxo-6,7,8,9-tetrahydro-5H-pyrimido[4,5-b][1,4]diazepin-2-ylamino)-benzenesulfonamide] |  |  | < 10 µM | < 0.1 µM
22 | CC(=O)NS(=O)(=O)c1ccc(Nc2ncc3c(n2)N(c2c(F)cccc2F)CCC(=O)N3C)cc1 [compound 351, N-Acetyl-4-[9-(2,6-difluoro-phenyl)-5-methyl-6-oxo-6,7,8,9-tetrahydro-5H-pyrimido[4,5-b][1,4]diazepin-2-ylamino]-benzenesulfonamide] |  |  |  | < 0.1 µM
23 | CC(=O)NS(=O)(=O)c1ccc(Nc2ncc3c(n2)N(c2ccc(N4CCOCC4)cc2)CCC(=O)N3C)cc1 [compound 352] |  |  |  | < 1 µM
